From ChEMBL document CHEMBL3045742, “Antioxidant, cytotoxicity, and QSAR study of 1-adamantylthio derivatives of 3-picoline and phenylpyridines” (Med Chem Res, 2012) come the findings set out here.

SMILES strings stand for the structures. Values after ≈ are worked out from the molar mass of the structure shown.

One test has as its system A549. Briefly: Cytotoxicity against Homo sapiens (human) A549 cells after 3 days by MTT assay. The test is classed as functional, cell-based. On the technique in general: Tetrazolium assays rely on reduction of a dye to a coloured formazan, in cell work by metabolically active cells.
Test [1] in a line: Antioxidant activity assessed as superoxide radical scavenging activity at 300 ug/mL by NBT reduction assay. The test is classed as functional.
In test [2] the test system is Radical scavenging activity. Briefly: Antioxidant activity assessed as DPPH radical scavenging activity at 300 ug/mL after 30 min. The test is classed as functional. A general note: Loss of DPPH colour is used to gauge radical scavenging.
Test [3] in a line: Cytotoxicity against Homo sapiens (human) HuCCa1 cells after 3 days by crystal violet staining. The test is classed as functional, cell-based, HuCC-A1.
Another test concerns MOLT-3. Briefly: Cytotoxicity against Homo sapiens (human) MOLT3 cells after 3 days by crystal violet staining. The test is classed as functional, cell-based. Particulars: MOLT-3, 72 h; call rule not given here.
Another test concerns HepG2. As to the kind of experiment: Cytotoxicity against Homo sapiens (human) HepG2 cells after 3 days by MTT assay. The test is classed as functional, cell-based.
Where [4] appears, read: Homo sapiens, A549, 72 h, read-out: IC50.
[5] abbreviates: Homo sapiens, HuCC-A1, 72 h, read-out: IC50.
Where [6] appears, read: Homo sapiens, HepG2, 72 h, read-out: IC50.

Broadly, the IC50 is the point on the concentration scale where inhibition reaches its midpoint. For the compound `Cc1ccc(SC23CC4CC(CC(C4)C2)C3)nc1` [6-(1-ADAMANTYLTHIO)-3-PICOLINE], the IC50 entry was “Not Active” with A549 (a549), “Not Active” in test [3] (hucc-a1), 27.2 µg/mL (≈ 105 µM) in the test with MOLT-3 and “Not Active” in the test on HepG2 (hepg2). The figures for the Activity in test [1] and in test [2] were 28.6% and 7.69%, respectively.

As for `c1ccc(-c2ccncc2SC23CC4CC(CC(C4)C2)C3)cc1` [3-(1-ADAMANTYLTHIO)-4-PHENYLPYRIDINE], the IC50 with A549 (setting [4]) was determined as 24 µg/mL (≈ 74.7 µM); in test [3] (setting [5]) it was 29 µg/mL (≈ 90.2 µM); in the test on MOLT-3, 8.02 µg/mL (≈ 24.9 µM); in the test with HepG2 (setting [6]), 21.5 µg/mL (≈ 66.9 µM). Further, the Activity was found to be 37.5% in test [1] and 12.2% in test [2].

For the compound `c1ccc(-c2ccc(SC34CC5CC(CC(C5)C3)C4)nc2)cc1` [6-(1-ADAMANTYLTHIO)-3-PHENYLPYRIDINE], the IC50 in the test with A549 (setting [4]) is 44 µg/mL (≈ 137 µM); in test [3] (hucc-a1) it was “Not Active”; with MOLT-3, 32.5 µg/mL (≈ 101 µM); in the test on HepG2 (hepg2), “Not Active”. Besides, the Activity in test [1] is 18%; in test [2] it was 10.6%.

As to `Cc1cncc(SC23CC4CC(CC(C4)C2)C3)c1` [5-(1-ADAMANTYLTHIO)-3-PICOLINE], the IC50 came to 29 µg/mL (≈ 112 µM) with A549 (setting [4]), 34 µg/mL (≈ 131 µM) in test [3] (setting [5]), 15.8 µg/mL (≈ 61.1 µM) in the test with MOLT-3 and 26.5 µg/mL (≈ 102 µM) in the test on HepG2 (setting [6]). Further, the results for the Activity in test [1] and in test [2] were 36.9% and 7.96%, respectively.

`Cc1cccnc1SC12CC3CC(CC(C3)C1)C2`: the half-inhibitory concentration (IC50) result was “Not Active” in the test on A549 (a549), “Not Active” in test [3] (hucc-a1), 33.3 µg/mL (≈ 128 µM) in the test with MOLT-3 and 30 µg/mL (≈ 116 µM) with HepG2 (setting [6]). In addition, the Activity in test [1] amounted to 10.8%; in test [2], 19.6%.

Consider `c1ccc(-c2cccc(SC34CC5CC(CC(C5)C3)C4)n2)cc1` [6-(1-ADAMANTYLTHIO)-2-PHENYLPYRIDINE], for which the IC50 in the test on A549 (setting [4]) is 44 µg/mL (≈ 137 µM); in test [3] (hucc-a1), “Not Active”; in the test on MOLT-3 it was 32.2 µg/mL (≈ 100 µM); in the test with HepG2 (setting [6]) it was 48.5 µg/mL (≈ 151 µM). Moreover, the Activity was determined as 25.9% in test [1] and 7.37% in test [2].

For the compound `COc1cccc2c1C(=O)c1c(O)c3c(c(O)c1C2=O)C[C@@](O)(C(=O)CO)C[C@@H]3O[C@H]1C[C@H](N)[C@H](O)[C@H](C)O1` [DOXORUBICIN], the IC50 in the test on A549 (setting [4]) is 0.39 µg/mL (≈ 0.718 µM); in test [3] (setting [5]), 0.45 µg/mL (≈ 0.828 µM); in the test with HepG2 (setting [6]) it was 0.23 µg/mL (≈ 0.423 µM).

`COc1cc([C@@H]2c3cc4c(cc3[C@@H](O[C@@H]3O[C@@H]5CO[C@@H](C)O[C@H]5[C@H](O)[C@H]3O)[C@H]3COC(=O)[C@H]23)OCO4)cc(OC)c1O` [ETOPOSIDE]: the IC50 with MOLT-3 turned out to be 0.019 µg/mL (≈ 0.0323 µM); in the test with HepG2 (setting [6]), 12 µg/mL (≈ 20.4 µM).

Regarding `c1ccc(-c2ccc(SC34CC5CC(CC(C5)C3)C4)cn2)cc1`, the Activity worked out at 31.6% in test [1] and 8.77% in test [2].

In the case of `c1ccc(-c2cccnc2SC23CC4CC(CC(C4)C2)C3)cc1`, the Activity in test [1] was 26.7%; in test [2] it was 11.1%.

In the case of `c1ccc(-c2ccnc(SC34CC5CC(CC(C5)C3)C4)c2)cc1`, the IC50 entry was “Not Active” in the test with A549 (a549), “Not Active” in test [3] (hucc-a1), 31.1 µg/mL (≈ 96.7 µM) in the test with MOLT-3 and 46.5 µg/mL (≈ 145 µM) in the test on HepG2 (setting [6]). The Activity in test [1] came to 32%; in test [2], 6.95%.

`c1ccc(-c2cc(SC34CC5CC(CC(C5)C3)C4)ccn2)cc1` [4-(1-ADAMANTYLTHIO)-2-PHENYLPYRIDINE]: the IC50 with A549 (setting [4]) is 38 µg/mL (≈ 118 µM); in test [3] (setting [5]) it was 49 µg/mL (≈ 152 µM); with MOLT-3 it was 28.6 µg/mL (≈ 88.8 µM); in the test with HepG2 (hepg2), “Not Active”. Moreover, the Activity in test [1] was found to be 32.1%; in test [2] it was 30.2%.
